Data taken from patent US20090012152A1, “Use of Tetramic Acid Derivatives for Controlling Insects from the Genus of the Plane Lice (Sternorrhyncha)” (Bayer CropScience Aktiengesellschaft, priority 2005, published 2009).

Legend:
Format in all cases: in vivo
[1] = tested on: Pemphigus bursarius; assay: Example 2: chrysanthemums, lettuce root aphid, foliar spray; conditions: on roots, spray on above-ground parts, rate : I-9 144, I-2 96
Experimental: In three replications, in each case 10 109-day-old chrysanthemums of the cultivar “Camilla” in 2 l-vessels are treated against the lettuce root aphid Pemphigus bursarius. Here, the active compounds Example (I-9) (240 SC) and Example (I-2) (240 SC) are applied with a knapsack sprayer operated by pressurized air at the stated application rates only to the above-ground parts of the plants. The soil is covered with a film. The application rate is 300 l of water/ha. 0.1% a.i. of rapeseed oil methyl ester (500 EW) is added to the spray liquor.
The kill in percent is determined on the roots. 21 and 29 days after the application, the following results are obtained: […]

[2] = tested on: Macrosiphum euphorbiae; assay: Example 46: head lettuce treated against Macrosiphum euphorbiae; conditions: nymphs on plants, g a.i./ha: endosulfan 1120, I-4 48
Experimental: In four replications, plots of a size of about 33 m^2 with head lettuce of the cultivar “PIC 714” are treated against Aulacorthum solani, Macrosiphum euphorbiae and Myzus persicae. The application is carried out using a tractor sprayer. Here, the active compound Example (I-4) (240 SC), in a tank mix with 0.2% a.i. of rapeseed oil methyl ester (500 EW), is tested against the commercial standard endosulfan (360 EC), at the stated application rates. The application rate is 187 l of water/ha. Two treatments are carried out, at an interval of 22 days.
Evaluation is carried out 8, 22, 30 and 40 days after the first treatment by rating the kill of the nymphs on the plants.

[3] = tested on: Quadraspidiotus perniciosus; assay: Example 21: almond tree treated against Quadraspidiotus perniciosus; conditions: on branches, per metre crown height: Dursban 2240 g/ha, I-4 110 g/ha
Experimental: In four replications, an about 20-year-old almond tree of the cultivar “Non-Pareil” is treated against Quadraspidiotus perniciosus. The application is carried out using a high-pressure sprayer. Here, the active compound Example (I-4) (240 SC) in a tank mix with 0.125% a.i. of methylated seed oil (1000 EC) and the commercial standard Lorsban (480 EC) are tested at the stated application rates. The amount of spray liquor is 935 l/ha.
Evaluation is carried out 21, 42 and 63 days after the treatment by rating the kill of the animals on the branches.

[4] = tested on: Rhodobium porosum; assay: Example 55: strawberry plants treated against Rhodobium porosum; conditions: nymphs on strawberry plants, g a.i./ha: Calypso 120, I-4 75
Experimental: In four replications, plots of a size of about 3 m^2 with 3-week-old strawberry plants are treated against Macrosiphum euphorbiae and Rhodobium porosum. The application is carried out using a knapsack sprayer operated with pressurized air. Here, the active compound Example (I-4) (150 OD) and the commercial standard Calypso (480 SC) are tested at the stated application rates. Here, the standard is sprayed as a tank mix with 0.03% of Motto (adjuvant). The application rate is 500 l of water/ha.
Evaluation is carried out 7 and 14 days after the second treatment by rating the kill of the nymphs on the plants.

[5] = tested on: Orthezia praelonga; assay: Example 25: orange trees treated against Orthezia praelonga; conditions: population on leaves, % a.i.: methidathion 0.05, I-4 0.0144, I-9 0.0144
Experimental: In two replications, two about 7-year-old orange trees of the cultivar “Pera Rio” are treated against Orthezia praelonga. Here, the active compounds Example (I-4) (240 SC) and Example (I-9) (240 SC), in a tank mix with 0.1% a.i. of Renex, are tested against the commercial standard Methidathion (400 EC), at the stated application rates. The application is carried out using a knapsack sprayer operated with pressurized air. Evaluation is carried out 6 and 16 days after the treatment by rating the kill of the population on the leaves.

[6] = tested on: Pulvinaria aurantii; assay: Example 11: satsuma trees treated against Pulvinaria aurantii; conditions: 41 days after treatment; live animals counted, Henderson and Tilton; satsuma tree; % a.i.: buprofezin 0.025, I-4 0.0144
Experimental: In three replications, in each case one about 4-year-old satsuma tree of the cultivar “Nankan 20” is treated against Pulvinaria aurantii. Here, the active compound Example (I-4) (240 SC) in a tank mix with 0.2% of rapeseed oil methyl ester (500 EW) at the stated application rate is tested against the commercial standard buprofezin at the stated application rate. The application is carried out using a motor-operated knapsack sprayer. Here, each plant is treated with 400 ml of spray liquor.
Evaluation is carried out before and 41 days after the treatment by counting the live animals. The efficacy in percent is then calculated according to Henderson and Tilton.

[7] = tested on: Pseudaulacaspis pentagons; assay: Example 22: peach trees treated against Pseudaulacaspis pentagons; conditions: crawlers on shoots, g a.i./ha/m crown height: Esteem 98, I-4 120
Experimental: In ten replications, on about 46 m^2, peach trees are treated against Pseudaulacaspis pentagons. Two applications are carried out at an interval of 57 days using a sprayer operated with pressurized air. Here, the active compound Example (I-4) (240 SC) in a tank mix with 0.2% of Dynamic (910 XL) is applied at the stated application rate and the commercial standard Esteem (35 WP) is applied at the stated application rate. The application rate is 935 l of water/ha.
Evaluation is carried out 35 and 79 days after the last treatment by rating the kill of the crawlers on the shoots.

[8] = tested on: Paratrioza cockerelli; assay: Example 9: tomatoes treated against Paratrioza cockerelli; conditions: nymphs on leaves, g a.i./ha: Levarage 81, I-4 48
Experimental: In three replications, plots of a size of 10 m^2 with tomatoes are treated against Paratrioza cockerelli. Application is carried out using a knapsack sprayer operated with pressurized air. Here, the active compound Example (I-4) (240 SC) in a tank mix with 0.2% a.i. of rapeseed oil methyl ester (500 EW) and the commercial standard Leverage (324 SE) are tested at the stated application rates. There are two applications at an interval of 7 days. The application rate is 345 l of water/ha.
Evaluation is carried out 7, 14 and 21 days after the first treatment by rating the kill of the animals (nymphs) on the leaves.

SMILES | Kill (%) 21 d ([1]; 21 d after application) [%] | Kill (%) 29 d ([1]; 29 d after application) [%] | Kill (%) 8 d ([2]; 8 d after first of two treatments) [%] | Kill (%) 22 d ([2]; 22 d after first of two treatments) [%] | Kill (%) 30 d ([2]; 30 d after first of two treatments) [%] | Kill (%) 40 d ([2]; 40 d after first of two treatments) [%] | Kill (%) 21 d ([3]; 21 d after treatment) [%] | Kill (%) 42 d ([3]; 42 d after treatment) [%] | Kill (%) 63 d ([3]; 63 d after treatment) [%] | Rhodobium porosum Kill (%) 7 d ([4]; 7 d after second treatment) [%] | Rhodobium porosum Kill (%) 14 d ([4]; 14 d after second treatment) [%] | Kill (%) 6 d ([5]; 6 d after treatment) [%] | Kill (%) 16 d ([5]; 16 d after treatment) [%] | Effect (%) [6] [%] | Kill (%) 35 d ([7]; 35 d after last of two treatments) [%] | Kill (%) 79 d ([7]; 79 d after last of two treatments) [%] | Kill (%) 7 d ([8]; 7 d after first of two treatments) [%] | Kill (%) 14 d ([8]; 14 d after first of two treatments) [%] | Kill (%) 21 d ([8]; 21 d after first of two treatments) [%]
CCOC(=O)OC1=C(c2cc(C)ccc2Br)C(=O)NC12CCC(OC)CC2 (stereo not shown) [Example (I-2)] | 80.8 | 91.8 |  |  |  |  |  |  |  |  |  |  |  |  |  |  |  |  | 
CCOC(=O)OC1=C(c2cc(C)ccc2C)C(=O)NC12CCC(OC)CC2 (stereo not shown) [Example (I-4)] |  |  | 95 | 100 | 100 | 96 | 84.9 | 90 | 94.6 | 97 | 96 | 94 | 76 | 100 | 90 | 87 | 71.3 | 90.3 | 95.5
